Toxic doses and inconclusive results are not listed. Rule as the data show it: active = T/C of 150% or more; inactive = T/C below 125%.
Tested on: L1210 leukemia ip in BDF1 mice, survival T/C
Assay: NCI In Vivo Anticancer Drug Screen. Data for tumor model L1210 Leukemia (intraperitoneal) in B6D2F1 (BDF1) mice
Settings: endpoint: mean survival time, higher = longer survival
How it was run: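 Tumor cells were implanted, animals were treated, and survival was followed. The result divides the treated measurement by the vehicle-control measurement.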

[1] = dose: 100.0 mg/kg/injection, schedule: Q04DX003 (ip), vehicle: saline with Tween-80
[2] = dose: 200.0 mg/kg/injection, schedule: Q04DX003 (ip), vehicle: saline with Tween-80
[3] = dose: 400.0 mg/kg/injection, schedule: Q04DX003 (ip), vehicle: saline with Tween-80
[4] = dose: 100.0 mg/kg/injection, schedule: Q01DX001 (ip), vehicle: saline
[5] = dose: 100.0 mg/kg/injection, schedule: Q01DX009 (ip), vehicle: saline with Tween-80
[6] = dose: 200.0 mg/kg/injection, schedule: Q01DX001 (ip), vehicle: saline
[7] = dose: 200.0 mg/kg/injection, schedule: Q01DX009 (ip), vehicle: saline with Tween-80
[8] = dose: 400.0 mg/kg/injection, schedule: Q01DX009 (ip), vehicle: saline with Tween-80
[9] = dose: 100.0 mg/kg/injection, schedule: Q01DX009 (ip), vehicle: Klucel (hydroxypropylcellulose) (HPC)
[10] = dose: 100.0 mg/kg/injection, schedule: Q04DX003 (ip), vehicle: Klucel (hydroxypropylcellulose) (HPC)
[11] = dose: 200.0 mg/kg/injection, schedule: Q04DX003 (ip), vehicle: Klucel (hydroxypropylcellulose) (HPC)
[12] = dose: 200.0 mg/kg/injection, schedule: Q01DX009 (ip), vehicle: Klucel (hydroxypropylcellulose) (HPC)
[13] = dose: 400.0 mg/kg/injection, schedule: Q04DX003 (ip), vehicle: Klucel (hydroxypropylcellulose) (HPC)

Measured: T/C

COc1cc2c(c(OC)c1OC)-c1ccc(OC)c(=O)cc1[C@@H](NC(=O)c1ccccc1)CC2
inactive: dose: 0.13 mg/kg/injection, schedule: Q01DX Z (ip), vehicle: methylcellulose (MC) 87 % of control | dose: 0.2 mg/kg/injection, schedule: Q01DX Z (ip), vehicle: methylcellulose (MC) 120 % of control | dose: 0.29 mg/kg/injection, schedule: Q01DX Z (ip), vehicle: methylcellulose (MC) 122 % of control | dose: 0.44 mg/kg/injection, schedule: Q01DX Z (ip), vehicle: methylcellulose (MC) 95 % of control | dose: 0.75 mg/kg/injection, schedule: Q01DX Z (ip), vehicle: methylcellulose (MC) 101 % of control | dose: 0.8 mg/kg/injection, schedule: Q01DX Z (ip), vehicle: methylcellulose (MC) 103 % of control | dose: 1.2 mg/kg/injection, schedule: Q01DX Z (ip), vehicle: methylcellulose (MC) 106 % of control | dose: 1.6 mg/kg/injection, schedule: Q01DX015 (ip), vehicle: carboxymethylcellulose (CMC) 108 % of control | dose: 1.8 mg/kg/injection, schedule: Q01DX Z (ip), vehicle: methylcellulose (MC) 103 % of control | dose: 2.5 mg/kg/injection, schedule: Q01DX015 (ip), vehicle: carboxymethylcellulose (CMC) 108 % of control | dose: 2.7 mg/kg/injection, schedule: Q01DX Z (ip), vehicle: methylcellulose (MC) 105 % of control | dose: 3.7 mg/kg/injection, schedule: Q01DX015 (ip), vehicle: carboxymethylcellulose (CMC) 123 % of control | dose: 4.0 mg/kg/injection, schedule: Q01DX Z (ip), vehicle: methylcellulose (MC) 114 % of control | dose: 5.0 mg/kg/injection, schedule: Q01DX001 (ip), vehicle: carboxymethylcellulose (CMC) 104 % of control | dose: 5.6 mg/kg/injection, schedule: Q01DX015 (ip), vehicle: carboxymethylcellulose (CMC) 108 % of control | dose: 8.4 mg/kg/injection, schedule: Q01DX015 (ip), vehicle: carboxymethylcellulose (CMC) 86 % of control | dose: 10.0 mg/kg/injection, schedule: Q01DX001 (ip), vehicle: carboxymethylcellulose (CMC) 120 % of control | dose: 20.0 mg/kg/injection, schedule: Q01DX001 (ip), vehicle: carboxymethylcellulose (CMC) 118 % of control | dose: 27.0 mg/kg/injection, schedule: Q01DX001 (ip), vehicle: carboxymethylcellulose (CMC) 120 % of control

O=NN(CCO)C(=O)Nc1ccc(NC(=O)N(CCO)N=O)cc1
inactive: dose: 9.0 mg/kg/injection, schedule: Q01DX001 (ip), vehicle: carboxymethylcellulose (CMC) 106 % of control | dose: 18.0 mg/kg/injection, schedule: Q01DX001 (ip), vehicle: carboxymethylcellulose (CMC) 108 % of control | dose: 26.0 mg/kg/injection, schedule: Q01DX001 (ip), vehicle: carboxymethylcellulose (CMC) 114 % of control | dose: 40.0 mg/kg/injection, schedule: Q01DX001 (ip), vehicle: carboxymethylcellulose (CMC) 111 % of control | dose: 60.0 mg/kg/injection, schedule: Q01DX001 (ip), vehicle: carboxymethylcellulose (CMC) 111 % of control

CCCCOCC(O)CNCCN (stereo unspecified)
inactive: dose: 100.0 mg/kg/injection, schedule: Q04DX002 (ip), vehicle: saline 108 % of control | dose: 200.0 mg/kg/injection, schedule: Q04DX002 (ip), vehicle: saline 90 % of control | dose: 400.0 mg/kg/injection, schedule: Q04DX002 (ip), vehicle: saline 104 % of control

O=C1CC(N2C(=O)C3C4CCC(O4)C3C2=O)C(=O)N1 (stereo unspecified)
inactive: [1] 100 % of control | [2] 108 % of control | [3] 104 % of control

C1CCC2OCOCC2C1 (stereo unspecified)
inactive: dose: 100.0 mg/kg/injection, schedule: Q04DX002 (ip), vehicle: saline with Tween-80 93 % of control | dose: 200.0 mg/kg/injection, schedule: Q04DX002 (ip), vehicle: saline with Tween-80 90 % of control | dose: 400.0 mg/kg/injection, schedule: Q04DX002 (ip), vehicle: saline with Tween-80 93 % of control

OC1CSC1
inactive: dose: 50.0 mg/kg/injection, schedule: Q01DX001 (ip), vehicle: saline 89 % of control | [4] 96 % of control | [5] 96 % of control | [1] 98 % of control | [6] 100 % of control | [7] 98 % of control | [2] 98 % of control | [8] 96 % of control | [3] 102 % of control

CN(C)C(=O)c1cccc(NC(=O)Oc2ccccc2)c1
inactive: [5] 109 % of control | [1] 102 % of control | [7] 101 % of control | [2] 100 % of control | [8] 101 % of control | [3] 102 % of control

O=C(Nc1ccc(F)cc1)Nc1ccc(Cl)cc1
inactive: [1] 86 % of control | [2] 86 % of control | [3] 87 % of control

CCOC(OCC)C(=O)NNC(C)C
inactive: dose: 25.0 mg/kg/injection, schedule: Q01DX009 (ip), vehicle: saline 95 % of control | dose: 50.0 mg/kg/injection, schedule: Q01DX009 (ip), vehicle: saline 97 % of control | dose: 100.0 mg/kg/injection, schedule: Q01DX009 (ip), vehicle: saline 108 % of control

NC(CSS(=O)(=O)O)=NCCCOCc1ccccc1
inactive: dose: 12.5 mg/kg/injection, schedule: Q04DX002 (ip), vehicle: Klucel (hydroxypropylcellulose) (HPC) 103 % of control | dose: 25.0 mg/kg/injection, schedule: Q04DX002 (ip), vehicle: Klucel (hydroxypropylcellulose) (HPC) 93 % of control

CCCCCCCCCCCCCCNCCCCCCCCCCCCCC
inactive: dose: 50.0 mg/kg/injection, schedule: Q01DX009 (ip), vehicle: Klucel (hydroxypropylcellulose) (HPC) 95 % of control | dose: 50.0 mg/kg/injection, schedule: Q04DX003 (ip), vehicle: Klucel (hydroxypropylcellulose) (HPC) 105 % of control | [9] 101 % of control | [10] 101 % of control | [11] 95 % of control

CCC(CO)Nc1nc2ccccc2c2ccccc12 (stereo unspecified)
inactive: [9] 102 % of control | [10] 98 % of control | [12] 97 % of control | [11] 89 % of control | [13] 88 % of control

COc1ccc(NC(=O)C(Br)C(Br)c2ccccc2)c(Cl)c1 (stereo unspecified)
inactive: [9] 102 % of control | [12] 97 % of control | dose: 400.0 mg/kg/injection, schedule: Q01DX009 (ip), vehicle: Klucel (hydroxypropylcellulose) (HPC) 96 % of control

CC1=CC(=O)c2[nH]ncc2C1=O
inactive: dose: 10.0 mg/kg/injection, schedule: Q01DX001 (ip), vehicle: water 93 % of control

CC12CCC(C/C1=C\C#N)C(C)(C)O2 (stereo unspecified)
inactive: [10] 98 % of control | [11] 98 % of control | [13] 101 % of control

CCP(=S)(CP(=S)(c1ccccc1)c1ccccc1)c1ccccc1 (stereo unspecified)
inactive: dose: 100.0 mg/kg/injection, schedule: Q04DX002 (sc), vehicle: olive oil, sesame oil, peanut oil 104 % of control | dose: 200.0 mg/kg/injection, schedule: Q04DX002 (sc), vehicle: olive oil, sesame oil, peanut oil 104 % of control | dose: 400.0 mg/kg/injection, schedule: Q04DX002 (sc), vehicle: olive oil, sesame oil, peanut oil 104 % of control

c1cc2c(cc1CNC1CCCCC1)OCO2
inactive: dose: 75.0 mg/kg/injection, schedule: Q01DX001 (ip), vehicle: saline 100 % of control

NC1=NCCCN1
inactive: [1] 101 % of control

CS(=O)(=O)Nc1ccccc1N
inactive: [9] 95 % of control | [12] 93 % of control

CC1OC(C2COC(C)(C)O2)C2OC(C)(C)OC12 (stereo unspecified)
inactive: dose: 100.0 mg/kg/injection, schedule: Q01DX001 (ip), vehicle: saline with Tween-80 101 % of control | dose: 200.0 mg/kg/injection, schedule: Q01DX001 (ip), vehicle: saline with Tween-80 101 % of control | dose: 400.0 mg/kg/injection, schedule: Q01DX001 (ip), vehicle: saline with Tween-80 101 % of control

Cc1nonc1NC(=O)OCc1ccccc1
inactive: dose: 100.0 mg/kg/injection, schedule: Q04DX002 (ip), vehicle: Klucel (hydroxypropylcellulose) (HPC) 97 % of control | dose: 200.0 mg/kg/injection, schedule: Q04DX002 (ip), vehicle: Klucel (hydroxypropylcellulose) (HPC) 93 % of control | dose: 400.0 mg/kg/injection, schedule: Q04DX002 (ip), vehicle: Klucel (hydroxypropylcellulose) (HPC) 104 % of control

CCCNC(c1ccc(C=NC(CC)(CO)CO)cc1)C(Cl)(Cl)Cl (stereo unspecified)
inactive: [4] 89 % of control | [6] 92 % of control | dose: 400.0 mg/kg/injection, schedule: Q01DX001 (ip), vehicle: saline 97 % of control

OCC1OC(n2cnc3c(NCCCCNc4ncnc5c4ncn5C4OC(CO)C(O)C4O)ncnc32)C(O)C1O (stereo unspecified)
inactive: dose: 100.0 mg/kg/injection, schedule: Q01DX005 (ip), vehicle: saline 100 % of control | dose: 200.0 mg/kg/injection, schedule: Q01DX005 (ip), vehicle: saline 108 % of control

Reference: PubChem BioAssay AID248 (DTP/NCI, 2004)
